Measurements published in US20260200939A1, “MOLECULAR GLUE DEGRADER COMPOUNDS AND USES THEREOF” (Novartis AG, priority 2022, published 2026).

These compounds were tested against T1, CDK4 (Homo sapiens, UniProt P11802) (assay: CDK4 Degradation Assay, Western blotting). Details: not given.
T1 construct: endogenous in cells; host or cells: C33A
Type: cell-based
Experimental: C33A cells were purchased from American Type Culture Collection (ATCC) and were cultured in Dulbecco's Modified Eagle Medium (DMEM) containing 10% (v/v) fetal bovine serum (FBS) and maintained at 37° C. with 5% CO2. 22RV1 cells were purchased from the ATCC and were cultured in RPMI-1640 Medium containing 10% (v/v) FBS and maintained at 37° C. with 5% CO2. HEK293T cells were obtained from the UC Berkeley Cell Culture Facility and were cultured in DMEM containing 10% (v/v) FBS and maintained at 37° C. with 5% CO2. K562 cells were obtained from the UC Berkeley Cell Culture Facility and were cultured in Iscove's Modified Dulbecco's Medium (IMDM) containing 10% (v/v) FBS and maintained at 37° C. with 5% CO2. MV-4-11 cells were obtained from the ATCC and were cultured in IMDM containing 10% (v/v) FBS and maintained at 37° C. with 5% CO2. A549 cells were obtained from the ATCC and were cultured in F-12K Medium containing 10% (v/v) FBS and maintained at 37° C. with 5% CO2. Mino cells were obtained from the ATCC and were cultured in RPMI-1640 Medium containing 10% (v/v) FBS and maintained at 37° C. with 5% CO2. LNCaP cells were obtained from the ATCC and were cultured in RPMI-1640 Medium containing 10% (v/v) FBS and maintained at 37° C. with 5% CO2. Unless otherwise specified, all cell culture materials were purchased from Gibco. It is not known whether HEK293T cells are from male or female origin.
Cells were washed twice with cold PBS, scraped, and pelleted by centrifugation (700 g, 5 min, 4° C.). Pellets were resuspended in PBS, sonicated, clarified by centrifugation (12,000 g, 10 min, 4° C.), and lysate was transferred to new low-adhesion microcentrifuge tubes. Proteome concentrations were determined using BCA assay and lysate was diluted to appropriate working concentrations.
Proteins were resolved by SDS/PAGE and transferred to nitrocellulose membranes using the Trans-Blot Turbo transfer system (Bio-Rad). Membranes were blocked with 5% BSA in Tris-buffered saline containing Tween 20 (TBS-T) solution for 30 min at RT, washed in TBS-T, and probed with primary antibody diluted in recommended diluent per manufacturer overnight at 4° C. After 3 washes with TBS-T, the membranes were incubated in the dark with IR680- or IR800-conjugated secondary antibodies at 1:10,000 dilution in 5% BSA in TBS-T at RT for 1 h. After 3 additional washes with TBST, blots were visualized using an Odyssey Li-Cor fluorescent scanner. The membranes were stripped using ReBlot Plus Strong Antibody Stripping Solution (EMD Millipore) when additional primary antibody incubations were performed. Antibodies used in this study were CDK4 (Abcam ab108357), Vinculin (Abcam ab129002), GAPDH (Cell Signaling Technology 14C10), RNF126 (Santa Cruz Biotechnology sc-376005), BRD4 (Abcam ab128874), Beta Actin (Cell Signaling Technology 13E5), PDE5 (Abcam ab259945), AR-V7 (Abcam ab273500), c-Abl (Santa Cruz Biotechnology sc-23), SMARCA2 (Abcam ab240648), LRRK2 (Abcam ab133474), BTK (Cell Signaling Technology D3H5), Androgen Receptor (Abcam ab133273).

Q: `COc1ccc(C(=O)/C(C)=C/C(=O)N2CCN(c3ccc(Nc4ncc5cc(C(=O)N(C)C)n(C6CCCC6)c5n4)nc3)CC2)cc1` [Compound 146, (E)-7-cyclopentyl-2-((5-(4-(4-(4-methoxyphenyl)-3-methyl-4-oxobut-2-enoyl)piperazin-1-yl)pyridin-2-yl)amino)-N,N-dimethyl-7H-pyrrolo[2,3-d]pyrimidine-6-carboxamide] was tested. Which DC50 did it give?
A: > 10 µM

Q: `COc1ccccc1C(=O)/C=C/C(=O)N1CCN(c2ccc(Nc3ncc4cc(C(=O)N(C)C)n(C5CCCC5)c4n3)nc2)CC1` [Compound 148, (E)-7-cyclopentyl-2-((5-(4-(4-(2-methoxyphenyl)-4-oxobut-2-enoyl)piperazin-1-yl)pyridin-2-yl)amino)-N,N-dimethyl-7H-pyrrolo[2,3-d]pyrimidine-6-carboxamide] was tested. Which DC50 did it give?
A: > 10 µM

Q: Which DC50 does the source give for `CN(C)C(=O)c1cc2cnc(Nc3ccc(N4CCN(C(=O)/C=C/C(=O)c5ccc(F)cc5)CC4)cn3)nc2n1C1CCCC1` [Compound 151, (E)-7-cyclopentyl-2-((5-(4-(4-(4-fluorophenyl)-4-oxobut-2-enoyl)piperazin-1-yl)pyridin-2-yl)amino)-N,N-dimethyl-7H-pyrrolo[2,3-d]pyrimidine-6-carboxamide] here?
A: > 10 µM

Q: How did the DC50 turn out when `CN(C)C(=O)c1cc2cnc(Nc3ccc(N4CCN(C(=O)/C=C/C(=O)c5ccccc5Cl)CC4)cn3)nc2n1C1CCCC1` [Compound 158, (E)-2-((5-(4-(4-(2-chlorophenyl)-4-oxobut-2-enoyl)piperazin-1-yl)pyridin-2-yl)amino)-7-cyclopentyl-N,N-dimethyl-7H-pyrrolo[2,3-d]pyrimidine-6-carboxamide] was run?
A: > 10 µM

Q: `CN(C)C(=O)c1cc2cnc(Nc3ccc(N4CCN(C(=O)/C=C/C(=O)c5ccccc5Br)CC4)cn3)nc2n1C1CCCC1` [Compound 159, (E)-2-((5-(4-(4-(2-bromophenyl)-4-oxobut-2-enoyl)piperazin-1-yl)pyridin-2-yl)amino)-7-cyclopentyl-N,N-dimethyl-7H-pyrrolo[2,3-d]pyrimidine-6-carboxamide] was tested. Which DC50 did it give?
A: > 10 µM

Q: With `COc1ccc(C(=O)/C=C(\C)C(=O)N2CCN(c3ccc(Nc4ncc5cc(C(=O)N(C)C)n(C6CCCC6)c5n4)nc3)CC2)cc1` [Compound 160, (E)-7-cyclopentyl-2-((5-(4-(4-(4-methoxyphenyl)-2-methyl-4-oxobut-2-enoyl)piperazin-1-yl)pyridin-2-yl)amino)-N,N-dimethyl-7H-pyrrolo[2,3-d]pyrimidine-6-carboxamide] as the compound, how does the DC50 read?
A: > 10 µM

Q: With `CN(C)C(=O)c1cc2cnc(Nc3ccc(N4CCN(C(=O)/C=C/C(=O)c5cccc(C(F)(F)F)c5)CC4)cn3)nc2n1C1CCCC1` [Compound 165, (E)-7-cyclopentyl-N,N-dimethyl-2-((5-(4-(4-oxo-4-(3-(trifluoromethyl)phenyl)but-2-enoyl)piperazin-1-yl)pyridin-2-yl)amino)-7H-pyrrolo[2,3-d]pyrimidine-6-carboxamide] as the compound, how does the DC50 read?
A: > 10 µM

Q: For `CN(C)C(=O)c1cc2cnc(Nc3ccc(N4CCN(C(=O)/C=C/C(=O)c5ccc6c(c5)OCCO6)CC4)cn3)nc2n1C1CCCC1` [Compound 255, (E)-7-cyclopentyl-2-((5-(4-(4-(2,3-dihydrobenzo[b][1,4]dioxin-6-yl)-4-oxobut-2-enoyl)piperazin-1-yl)pyridin-2-yl)amino)-N,N-dimethyl-7H-pyrrolo[2,3-d]pyrimidine-6-carboxamide], which DC50 is on record?
A: > 10 µM

Q: How did the DC50 turn out when `COc1ccc(C(=O)/C=C(\C#N)C(=O)N2CCN(c3ccc(Nc4ncc5cc(C(=O)N(C)C)n(C6CCCC6)c5n4)nc3)CC2)cc1` [Compound 256, (E)-2-((5-(4-(2-cyano-4-(4-methoxyphenyl)-4-oxobut-2-enoyl)piperazin-1-yl)pyridin-2-yl)amino)-7-cyclopentyl-N,N-dimethyl-7H-pyrrolo[2,3-d]pyrimidine-6-carboxamide] was run?
A: > 10 µM

Q: For `CN(C)C(=O)c1cc2cnc(Nc3ccc(N4CCN(C(=O)/C=C/C(=O)c5ccc6c(c5)NC(=O)CO6)CC4)cn3)nc2n1C1CCCC1` [Compound 257, (E)-7-cyclopentyl-N,N-dimethyl-2-((5-(4-(4-oxo-4-(3-oxo-3,4-dihydro-2H-benzo[b][1,4]oxazin-6-yl)but-2-enoyl)piperazin-1-yl)pyridin-2-yl)amino)-7H-pyrrolo[2,3-d]pyrimidine-6-carboxamide], which DC50 is on record?
A: > 10 µM

Q: With `CN(C)C(=O)c1cc2cnc(Nc3ccc(N4CCN(C(=O)/C=C/C(=O)c5ccccc5)CC4)cn3)nc2n1C1CCCC1` [Compound 258, (E)-7-cyclopentyl-N,N-dimethyl-2-((5-(4-(4-oxo-4-phenylbut-2-enoyl)piperazin-1-yl)pyridin-2-yl)amino)-7H-pyrrolo[2,3-d]pyrimidine-6-carboxamide] as the compound, how does the DC50 read?
A: > 10 µM

Q: How did the DC50 turn out when `CN(C)C(=O)c1cc2cnc(Nc3ccc(N4CCN(C(=O)/C=C/C(=O)c5cccc(Br)c5)CC4)cn3)nc2n1C1CCCC1` [Compound 259, (E)-2-((5-(4-(4-(3-bromophenyl)-4-oxobut-2-enoyl)piperazin-1-yl)pyridin-2-yl)amino)-7-cyclopentyl-N,N-dimethyl-7H-pyrrolo[2,3-d]pyrimidine-6-carboxamide] was run?
A: > 10 µM

Q: For `CN(C)C(=O)c1cc2cnc(Nc3ccc(N4CCN(C(=O)/C=C/C(=O)c5ccc6c(c5)OCC6)CC4)cn3)nc2n1C1CCCC1` [Compound 260, (E)-7-cyclopentyl-2-((5-(4-(4-(2,3-dihydrobenzofuran-6-yl)-4-oxobut-2-enoyl)piperazin-1-yl)pyridin-2-yl)amino)-N,N-dimethyl-7H-pyrrolo[2,3-d]pyrimidine-6-carboxamide], which DC50 is on record?
A: > 10 µM

What follows are compounds tested against T2, Recombinant RNF126 (Homo sapiens, UniProt Q9BV68) (assay: RNF126 Binding Assay, gel-based ABPP). Details: not given.
T2 construct: FLAG (C); host or cells: HEK293T
T2 sequence (Q9BV68 whole entry): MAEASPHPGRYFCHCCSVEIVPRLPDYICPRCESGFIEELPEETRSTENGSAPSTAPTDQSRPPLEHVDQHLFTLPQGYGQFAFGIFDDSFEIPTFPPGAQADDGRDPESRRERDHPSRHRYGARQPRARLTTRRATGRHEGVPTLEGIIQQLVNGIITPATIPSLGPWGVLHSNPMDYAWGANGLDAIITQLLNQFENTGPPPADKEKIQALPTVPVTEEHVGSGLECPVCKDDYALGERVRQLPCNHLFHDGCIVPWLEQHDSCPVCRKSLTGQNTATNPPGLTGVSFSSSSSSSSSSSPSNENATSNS
Experimental: RNF126 mammalian expression plasmid with a C-terminal FLAG tag was purchased from Origene (Origene Technologies Inc., RC204986). The plasmid was transformed into NEB 5-alpha Competent E. coli (DH5) cells (NEB product no. C2987H). The following day, a single transformed colony was used to inoculate 50 ml of nutrient rich LB medium containing kanamycin (50 μg/ml) and was incubated at 37° C. overnight, with agitation (250 rpm). A Miniprep (Qiagen) kit was used to isolate the plasmid before sequence verification with appropriate primers.
HEK293T cells were grown to 30-50% confluency in DMEM supplemented with 10% FBS (Corning) and maintained at 37° C. with 5% CO2. Immediately before transfection, media was replaced with DMEM containing 5% FBS. Each plate was transfected with 24 μg of overexpression plasmid with 24 μL Lipofectamine 3000 (Invitrogen) in Opti-MEM. After 48 h cells were collected in PBS, lysed by sonication, and batch bound with anti-DYKDDDDK resin (GenScript, L00432) for 2 hours. Lysate and resin were washed with PBS and eluted with 133.33 μg/ml 3×FLAG peptide (ApexBio, A6001) in PBS. Five elutions were performed for 15 minutes each. Elutions were concentrated and the protein was stored in PBS. Concentration and purity was determined using the BCA assay and western blotting.
Recombinant RNF126 ([…]) was pre-treated with either DMSO vehicle or covalent ligand at 37° C. for 30 min in 25 μL of PBS, and subsequently treated with of IA-Rhodamine (concentrations designated in figure legends) (Setareh Biotech) at room temperature for 1 h in the dark. The reaction was stopped by addition of 4×reducing Laemmli SDS sample loading buffer (Alfa Aesar). After boiling at 95° C. for 5 min, the samples were separated on precast 4-20% Criterion TGX gels (Bio-Rad). Probe-labeled proteins were analyzed by in-gel fluorescence using a ChemiDoc MP (Bio-Rad).

Q: Which IC50 does the source give for `CC(C)(C)OC(=O)N1CCN(C(=O)/C=C/C(=O)c2ccc(C#N)cc2)CC1` [Compound 416, tert-butyl (E)-4-(4-(4-cyanophenyl)-4-oxobut-2-enoyl)piperazine-1-carboxylate] here?
A: < 100 nM

Same assay, conditions: range with lower bound in nM and upper bound in μM

Q: For `CC(C)(C)OC(=O)N1CCN(C(=O)/C=C/C(=O)c2cccc(C#N)c2)CC1` [Compound 417, tert-butyl (E)-4-(4-(3-cyanophenyl)-4-oxobut-2-enoyl)piperazine-1-carboxylate], which IC50 is on record?
A: 100 to 1000 nM

Q: Which IC50 does the source give for `COc1ccc(C(=O)/C=C/C(=O)N2CCN(C(=O)OC(C)(C)C)CC2)c(Cl)c1` [Compound 418, tert-butyl (E)-4-(4-(2-chloro-4-methoxyphenyl)-4-oxobut-2-enoyl)piperazine-1-carboxylate] here?
A: 100 to 1000 nM

Q: `C#CCOc1ccc(C(=O)/C=C/C(=O)N2CCN(C(=O)OC(C)(C)C)CC2)cc1` [Compound 419, tert-butyl (E)-4-(4-oxo-4-(4-(prop-2-yn-1-yloxy)phenyl)but-2-enoyl)piperazine-1-carboxylate] was tested. Which IC50 did it give?
A: 100 to 1000 nM
